# “Also recorded” adds a separate entry of the source.
# Legend:
# [1] = system: TS cells (lung TICs); assay: Intraperitoneal administration to NSG mice subcutaneously implanted with lung TICs; type: in vivo; conditions: FIDAS5 40 mg/kg i.p., three consecutive days, after 6 weeks
# Excerpt: (§1) 5×10^5 single cells were mixed in a 1:1 mixture of serum free DMEM/F12 and Matrigel (BD) and injected subcutaneously into the flanks of 4-6 week old male and female NOD.Cg-Prkdc^scid Il2rg^tm1wjl SzJ (Jackson Laboratories). About 6 weeks later, or when tumor sizes exceed 2 cm in length, mice were sacrificed and tumors harvested for analysis. All animal experiments were approved by the Agency for Science Technology and Research Singapore—Biological Resource Centre. Mice were randomized by sex.
# Since FIDAS5 appeared to more specifically disrupt the methionine cycle and inhibit cellular methylation activities compared to D9, it was sought to test whether its systemic delivery could impact the tumorigenic potential of TS cells. These highly tumorigenic cells were first subcutaneously implanted into NSG mice and FIDAS5 (40 mg/kg) or corn oil carrier was immediately administered via intraperitoneal injection for three consecutive days. After 6 weeks, mice transiently treated with FIDAS5 produced tumors that were much smaller than carrier-treated controls. […] To exclude the possibility of general cytotoxicity associated with the inhibitor on TS cells, TS cell-implanted NSG mice were treated with cisplatin (4 mg/kg), a frontline chemotherapeutic agent that broadly target bulk cancer cells in NSCLC tumors, in the same manner (FIG. 5i). […]
# [2] = system: TS cells; assay: Orthotopically implanted GFP-expressing TS cells in lungs of NSG mice; type: in vivo; conditions: orthotopic TS cells, transient treatment for 3 days, 5 weeks post implantation
# Excerpt: GFP expressing 1.5×10^6 single TS cells (transduced with PLL3.7 vector) with suspended in tumor sphere media and injected intravenously through tail-vein into 4-6 week old male and female NOD.Cg-Prkdc^scid Il2rg^tm1wjl SWJ (Jackson Laboratories) mice. Mice were continuously monitored and then sacrificed at 5 weeks post injection. Lungs were harvested, fixed in 4% paraformaldehyde and embedded in paraffin for subsequent analysis. Anti-GFP (ab13970) antibody from Abcam and Alexa-Fluor Goat 488 anti-Chicken antibody (A-11039; ThermoFisher) was used to visualize and quantify GFP-positive lesions using immunofluorescence protocol outlined above. Mice were randomized by sex.
# Since FIDAS5 appeared to more specifically disrupt the methionine cycle and inhibit cellular methylation activities compared to D9, it was sought to test whether its systemic delivery could impact the tumorigenic potential of TS cells. These highly tumorigenic cells were first subcutaneously implanted into NSG mice and FIDAS5 (40 mg/kg) or corn oil carrier was immediately administered via intraperitoneal injection for three consecutive days. After 6 weeks, mice transiently treated with FIDAS5 produced tumors that were much smaller than carrier-treated controls. […]
# [3] = system: histone methylation in Adh cells; assay: Western blot of methylated histones in Adh cells; type: cell-based, human; conditions: FIDAS5 treatment
# Protocol: (§2) 1.5×10^6 cells were lysed in Llaemli-SDS buffer and then sonicated. Total protein concentration was measured by Bradford assay. Total cell lysates were separated by SDS-PAGE and transferred onto nitrocellulose, followed by blocking in 5% (v/v) milk in Tris-buffered saline in Tween 20, probing with the indicated antibodies and visualized by chemiluminescence (Roche). Primary antibodies used were anti-β-Actin (sc-47778), anti-GAPDH (sc-32233) from Santa Cruz: anti-GLDC (ab97625), anti-H3 (ab1791), anti-H3 (dimethylK36) (ab9049), anti-MAT2A (ab77471), anti-MTR (ab9209), anti-H3 (trimethylK79) (ab2621), anti-MTHFR (ab125707), anti-MTAP (ab ab55517) from Abcam; anti-H3(trimethyl K4) (39159), anti-H3(trimethyl K27)(39155), anti-H3(trimethylK36)(61101) and anti-H3(trimethylK9)(39765) from Active Motif; anti-β-catenin (BD610154) from BD Biosciences; anti-SHMT2 (HPA020549) and anti-SAHH (WH0000191M8) from Sigma; anti-Symmetric Di-Methyl Arginine Motif (13222) from CST.
# [4] = system: CD166 expression in TS cells; assay: CD166 staining of TS cells by flow cytometry; type: cell-based, human; conditions: FIDAS vs DMSO
# [5] = system: histone methylation in TS cells; assay: Western blot of methylated histones in TS cells; type: cell-based, human; conditions: TS cells exposed transiently (48 h) to inhibitor
# Protocol: as §2
# (§3) To evaluate the methionine cycle as a therapeutic target in lung TICs, small molecule inhibitors that target enzymes within this pathway were employed, mimicking the effects of short-term methionine starvation (FIG. 5a). two inhibitors known to perturb methionine cycle activity and cellular methylation levels: 1) MAT2A inhibitor, FIDAS5; and 2) SAHH inhibitor, D9, which is an analog of DZNep. In a manner similar to amino acid starvation studies, TS cells were exposed transiently to the compounds for 48 h in culture and were immediately used for downstream tumorigenesis assays.
# [6] = system: TS cells (lung TICs); assay: Tumor formation in NSG mice after transplantation of pre-treated TS cells; type: in vivo; conditions: 500,000 TS cells treated 48 h with inhibitor, transplanted into NSG mice, 6 weeks
# Excerpt: as §1, §3
# [7] = system: TS cells (lung TICs); assay: Soft agar colony formation of pre-treated TS cells; type: cell-based, human; conditions: TS cells treated 48 h with inhibitor prior to soft agar assay
# Protocol: 2.5 ml lower layer of 0.7% agar in complete DMEM/F12 with 10% fetal bovine serum was placed in 3 wells of a 6 well dish, and permitted to solidify. 2×10^4 Cells (for 3 wells) were then suspended in a 2 ml layer of 0.35% agar in complete DMEM/F12 with 10% fetal bovine serum and layered on top of the bottom layer. Colonies were stained with crystal violet and counted after approximately 2 months.
# as §3
# [8] = system: TS cells; assay: Cell proliferation assay (CellTiter-Glo) of TS cells; type: cell-based, human
# Protocol: (§4) Cells were seeded into 96-well plates at a density of 2,000 cells/well for TS cells and 500 cells/well for Adh cells. The relative number of viable cells was determined by the quantification of ATP using the CellTiter-Glo Luminescent Cell Viability Assay (Promega) system.
# [9] = system: triple-negative breast cancer (TNBC) cells incl. BC2.2; assay: Sensitivity of triple-negative breast cancer cells to MAT2A inhibition; type: cell-based; conditions: in particular chemotherapy resistant BC2.2
# [10] = system: cancer cell lines with high or low MAT2A expression; assay: Proliferation of cancer cell lines grown in FIDAS5 containing medium; type: cell-based; conditions: 10 uM
# Protocol: as §4
# [11] = system: Adh cells; assay: Proliferation of Adh cells grown in FIDAS5-containing media; type: cell-based, human
# Protocol: as §4
# [12] = system: non-neoplastic cell lines; assay: Proliferation of non-neoplastic (untransformed) cell lines in FIDAS5-containing media; type: cell-based
# Protocol: as §4
# [13] = system: histone methylation in NIH 3T3 cells; assay: Western blot of methylated histones in NIH 3T3 cells; type: cell-based; conditions: FIDAS5 treatment
# Protocol: as §2
smiles,measurement,setting,value
CNc1ccc(/C=C/c2c(F)cccc2Cl)cc1 [FIDAS5],tumor size vs carrier-treated controls,[1],much smaller
same,number of pulmonary lesions,[2],decreased number of pulmonary lesions
same,histone methylation marks,[3],did not demonstrate reduction in histone methylation marks
same,CD166 expression,[4],loss of CD166 expression
same,histone methylation levels,[5],complete ablation
same,tumor-forming ability,[6],severely diminished
same,colony-forming ability,[7],severely diminished
same,growth capacity,"[8]; TS cells exposed to FIDAS5 for six days, then medium without FIDAS5",completely ablated
same,long-term proliferation ability,"[8]; TS cells, transient 48 h exposure then complete media",did not negatively impact
same,effect on TNBC cells,[9],displayed sensitivity; also recorded: effective
same,growth upon FIDAS5 treatment,[10]; cancer cell lines expressing high MAT2A,dramatically hampered in their growth
same,growth upon FIDAS5 treatment,[10]; cancer cell lines expressing low MAT2A,largely insensitive
same,proliferation in FIDAS5-containing media,[11],far less affected
same,proliferation in FIDAS5-containing media,[12],far less affected
same,histone methylation marks,[13],did not demonstrate reduction in histone methylation marks

# Reference: patent US11872230B2, “Method of treating a methionine-dependent cancer” (Agency for Science, Technology and Research, priority 2018, dated 2024)
